One test addresses FXa (Homo sapiens, UniProt P00742). Nature of the test: Related protease inhibition: FXa, fluorogenic substrate. The test is classed as biochemical. The note with it: fluorogenic substrate at Km, 25° C.; H1-H3 = % activity at 40 μM. Here is the method: Human serine protease enzyme Plasma Kallikrein, KLK1, FXa, Plasmin, Thrombin and Trypsin were assayed for enzymatic activity using an appropriate fluorogenic substrate at Km concentration, FXIa at fixed substrate concentration of 100 μM and various concentrations of the test compound.

Test [1] concerns the target T1, Human Factor XIIa (hFXIIa) (Homo sapiens, UniProt P00748).
T1 construct: purchased Enzyme Research Laboratories
T1 sequence (P00748 373-615 limits assumed): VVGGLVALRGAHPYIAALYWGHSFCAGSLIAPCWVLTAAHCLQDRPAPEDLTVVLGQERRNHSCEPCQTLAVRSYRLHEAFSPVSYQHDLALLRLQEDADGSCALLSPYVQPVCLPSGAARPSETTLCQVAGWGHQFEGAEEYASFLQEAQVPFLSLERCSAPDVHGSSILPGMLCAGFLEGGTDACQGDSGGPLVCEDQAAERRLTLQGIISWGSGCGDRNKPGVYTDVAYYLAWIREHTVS
T1 sequence (P00748 20-372 partner limits assumed): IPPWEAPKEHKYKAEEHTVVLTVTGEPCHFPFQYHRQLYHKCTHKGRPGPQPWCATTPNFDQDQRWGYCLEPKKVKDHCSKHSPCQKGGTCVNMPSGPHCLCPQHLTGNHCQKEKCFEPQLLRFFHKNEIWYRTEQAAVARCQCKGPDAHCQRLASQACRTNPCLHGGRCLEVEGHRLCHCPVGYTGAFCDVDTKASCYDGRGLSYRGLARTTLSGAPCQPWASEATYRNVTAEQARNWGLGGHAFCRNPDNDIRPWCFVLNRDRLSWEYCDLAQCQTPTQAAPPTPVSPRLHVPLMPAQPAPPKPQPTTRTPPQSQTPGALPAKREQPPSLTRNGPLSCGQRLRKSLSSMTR
The experiment in a line: Determination of Human Factor XIIa (hFXIIa) inhibition, fluorogenic substrate IC50 assay. Format: biochemical. The note with it: fluorogenic substrate H-DPro-Phe-Arg-AFC at Km, 25° C., read-out: Human FXIIa IC50. Here is the method: Determination of Human Factor XIIa (hFXIIa) inhibition
The Km for the cleavage of the substrate by hFXIIa was determined by standard transformation of the Michaelis-Menten equation, with subsequent inhibition assays performed at substrate Km concentration.

Results on 15 compounds are retold here after patent US20260132132A1, “3A,4,5,6-TETRAHYDRO-1 H-PYRAZOLO[3,4-C]PYRIDIN-7(7AH)-ONE DERIVATIVES AS FACTOR XIIA INHIBITORS” (KALVISTA PHARMACEUTICALS LIMITED, priority 2022, published 2026).

A value given as a limit tells only on which side of the number the result lay.

Chain of FXa (P00742 235-488 limits assumed): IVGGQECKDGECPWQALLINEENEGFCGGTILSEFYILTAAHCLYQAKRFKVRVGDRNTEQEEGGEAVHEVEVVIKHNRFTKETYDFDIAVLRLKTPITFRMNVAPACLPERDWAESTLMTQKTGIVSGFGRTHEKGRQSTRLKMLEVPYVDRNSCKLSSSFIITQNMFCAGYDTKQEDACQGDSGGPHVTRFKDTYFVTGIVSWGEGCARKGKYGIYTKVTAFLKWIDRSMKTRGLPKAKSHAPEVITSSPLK
Chain of FXa (P00742 41-179 partner limits assumed): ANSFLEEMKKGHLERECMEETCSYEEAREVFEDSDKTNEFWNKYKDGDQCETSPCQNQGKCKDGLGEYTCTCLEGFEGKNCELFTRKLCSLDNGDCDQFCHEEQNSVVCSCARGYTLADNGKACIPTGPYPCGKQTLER

Usually IC50 stands for the concentration needed to halve the response being measured. Turning to `Cc1ccnc(C)c1CNC(=O)c1nn(-c2cccc(Cl)c2)c2c1CCN(c1ccc3c(c1)C(=O)N(CCO)CC3)C2=O` [Example 1326, 1-(3-chlorophenyl)-N-((2,4-dimethylpyridin-3-yl)methyl)-6-(2-(2-hydroxyethyl)-1-oxo-1,2,3,4-tetrahydroisoquinolin-7-yl)-7-oxo-4,5,6,7-tetrahydro-1H-pyrazolo[3,4-c]pyridine-3-carboxamide], the IC50 was greater than 40000 nM on FXa and 100 to 300 nM in test [1].
The like results for `COc1cncc(CNC(=O)c2nn(-c3cccc(Cl)c3)c3c2CCN(c2ccc4c(c2)C(=O)N(C)CC4)C3=O)c1` [Example 1213, 1-(3-chlorophenyl)-N-((5-methoxypyridin-3-yl)methyl)-6-(2-methyl-1-oxo-1,2,3,4-tetrahydroisoquinolin-7-yl)-7-oxo-4,5,6,7-tetrahydro-1H-pyrazolo[3,4-c]pyridine-3-carboxamide] were, in that order, 3000 to 10000 nM and 100 to 300 nM.
The like results for `COc1cccnc1CNC(=O)c1nn(-c2cccc(Cl)c2)c2c1CCN(c1ccc3c(c1)CN(CCO)CC3)C2=O` [Example 1160, 1-(3-chlorophenyl)-6-(2-(2-hydroxyethyl)-1,2,3,4-tetrahydroisoquinolin-7-yl)-N-((3-methoxypyridin-2-yl)methyl)-7-oxo-4,5,6,7-tetrahydro-1H-pyrazolo[3,4-c]pyridine-3-carboxamide] were, in that order, greater than 40000 nM and 10 to 100 nM.
For the compound `Cc1cc(CNC(=O)c2nn(-c3cccc(Cl)c3)c3c2CCN(c2cc4c(nn2)CCN(CCO)C4)C3=O)nn1C` [Example 1227, 1-(3-chlorophenyl)-N-((1,5-dimethyl-1H-pyrazol-3-yl)methyl)-6-(6-(2-hydroxyethyl)-5,6,7,8-tetrahydropyrido[4,3-c]pyridazin-3-yl)-7-oxo-4,5,6,7-tetrahydro-1H-pyrazolo[3,4-c]pyridine-3-carboxamide], the figures for the IC50 (against FXa; in test [1]) were 10000 to 40000 nM and 100 to 300 nM, respectively.
For the compound `O=C(NCC1CC1(F)F)c1nn(-c2cccc(Cl)c2)c2c1CCN(c1ccc3c(c1)CN(CCO)CC3)C2=O` (stereo not drawn) [Example 1142, 1-(3-chlorophenyl)-N-((2,2-difluorocyclopropyl)methyl)-6-(2-(2-hydroxyethyl)-1,2,3,4-tetrahydroisoquinolin-7-yl)-7-oxo-4,5,6,7-tetrahydro-1H-pyrazolo[3,4-c]pyridine-3-carboxamide], the IC50 was greater than 40000 nM against FXa and 100 to 300 nM in test [1].
On the same counts, the results for `CCNC(=O)c1nn(-c2cccc(Cl)c2)c2c1CCN(c1cccc(N3CCCN(C)C3=O)c1)C2=O` [Example 1390, 1-(3-chlorophenyl)-N-ethyl-6-(3-(3-methyl-2-oxotetrahydropyrimidin-1(2H)-yl)phenyl)-7-oxo-4,5,6,7-tetrahydro-1H-pyrazolo[3,4-c]pyridine-3-carboxamide] are greater than 40000 nM and 1000 to 3000 nM.
On the same counts, the results for `Cc1nc2c(C(=O)O)nn(-c3cccc(Cl)c3)c2c(=O)n1-c1ccc2c(c1)C(=O)N(CCO)CC2` [Example 3018, 1-(3-chlorophenyl)-6-(2-(2-hydroxyethyl)-1-oxo-1,2,3,4-tetrahydroisoquinolin-7-yl)-5-methyl-7-oxo-6,7-dihydro-1H-pyrazolo[4,3-d]pyrimidine-3-carboxylic acid] are 10000 to 40000 nM and 1000 to 3000 nM.
The like results for `CN1CCc2ccc(N3CCc4c(C(=O)NCC5CCCO5)nn(-c5cccc(Cl)c5)c4C3=O)cc2C1` (stereo not drawn) [Example 1025, 1-(3-chlorophenyl)-6-(2-methyl-1,2,3,4-tetrahydroisoquinolin-7-yl)-7-oxo-N-((tetrahydrofuran-2-yl)methyl)-4,5,6,7-tetrahydro-1H-pyrazolo[3,4-c]pyridine-3-carboxamide] were, in that order, 3000 to 10000 nM and 300 to 1000 nM.
As to `Cc1cnccc1CNC(=O)c1nn(-c2cccc(Cl)c2)c2c1CCN(c1ccc3c(c1)C(=O)N(CCO)CC3)C2=O` [Example 1357, 1-(3-chlorophenyl)-6-(2-(2-hydroxyethyl)-1-oxo-1,2,3,4-tetrahydroisoquinolin-7-yl)-N-((3-methylpyridin-4-yl)methyl)-7-oxo-4,5,6,7-tetrahydro-1H-pyrazolo[3,4-c]pyridine-3-carboxamide], the IC50 at FXa was greater than 40000 nM; in test [1], 300 to 1000 nM.
On the same counts, the results for `CN1CCc2ccc(N3CCc4c(C(=O)NC(C(=O)O)c5cccnc5)nn(-c5cccc(Cl)c5)c4C3=O)cc2C1=O` (stereo not drawn) [Example 1328, 2-(1-(3-chlorophenyl)-6-(2-methyl-1-oxo-1,2,3,4-tetrahydroisoquinolin-7-yl)-7-oxo-4,5,6,7-tetrahydro-1H-pyrazolo[3,4-c]pyridine-3-carboxamido)-2-(pyridin-3-yl)acetic acid] are 3000 to 10000 nM and 300 to 1000 nM.
The like results for `CCN1CCc2c(F)cc(N3CCc4c(C(=O)NCC5CC5)nn(-c5cccc(Cl)c5)c4C3=O)cc2C1` [Example 1121, 1-(3-chlorophenyl)-N-(cyclopropylmethyl)-6-(2-ethyl-5-fluoro-1,2,3,4-tetrahydroisoquinolin-7-yl)-7-oxo-4,5,6,7-tetrahydro-1H-pyrazolo[3,4-c]pyridine-3-carboxamide] were, in that order, greater than 40000 nM and 100 to 300 nM.
On the same counts, the results for `CCNC(=O)c1nn(-c2cccc(Cl)c2)c2c1CCN(c1ccc3c(c1)CN(C)CC3)C2=O` [Example 1014, 1-(3-chlorophenyl)-N-ethyl-6-(2-methyl-1,2,3,4-tetrahydroisoquinolin-7-yl)-7-oxo-4,5,6,7-tetrahydro-1H-pyrazolo[3,4-c]pyridine-3-carboxamide] are 10000 to 40000 nM and 300 to 1000 nM.
With `Cc1cc(CNC(=O)c2nn(-c3cccc(Cl)c3)c3c2CCN(c2ccc4c(c2)C(=O)N(C)CC4)C3=O)n[nH]1` [Example 1200, 1-(3-chlorophenyl)-6-(2-methyl-1-oxo-1,2,3,4-tetrahydroisoquinolin-7-yl)-N-((5-methyl-1H-pyrazol-3-yl)methyl)-7-oxo-4,5,6,7-tetrahydro-1H-pyrazolo[3,4-c]pyridine-3-carboxamide], the IC50 at FXa lay within 10000 to 40000 nM; in test [1], 100 to 300 nM.
The like results for `Cc1cc(CNC(=O)c2nn(-c3cccc(Cl)c3)c3c2CCN(c2ccc4c(c2)C(=O)N(C)CC4)C3=O)n(C)n1` [Example 1264, 1-(3-chlorophenyl)-N-((1,3-dimethyl-1H-pyrazol-5-yl)methyl)-6-(2-methyl-1-oxo-1,2,3,4-tetrahydroisoquinolin-7-yl)-7-oxo-4,5,6,7-tetrahydro-1H-pyrazolo[3,4-c]pyridine-3-carboxamide] were, in that order, 10000 to 40000 nM and 300 to 1000 nM.
The like results for `COc1cccnc1CNC(=O)c1nn(-c2cccc(Cl)c2)c2c1CCN(c1cc3c(nn1)CCN(CCO)C3)C2=O` [Example 1229, 1-(3-chlorophenyl)-6-(6-(2-hydroxyethyl)-5,6,7,8-tetrahydropyrido[4,3-c]pyridazin-3-yl)-N-((3-methoxypyridin-2-yl)methyl)-7-oxo-4,5,6,7-tetrahydro-1H-pyrazolo[3,4-c]pyridine-3-carboxamide] were, in that order, 10000 to 40000 nM and 100 to 300 nM.
